Where “and” joins values, the source holds several entries; their conditions need not be identical. Equal entries are not always repeated. Entries after “also recorded” stand apart in the source; their conditions may differ.
Experiments:
[1] = test system: C. elegans; test: Worm lifespan analysis; assay type: in vivo; details: for variation compared to control (%): vs N2 + water
Description: Worm Lifespan Analysis Lifespan tests were performed as described in Mouchiroud et al (L. Mouchiroud et al., Pyruvate imbalance mediates metabolic reprogramming and mimics lifespan extension by dietary restriction in Caenorhabditis elegans. Aging Cell 10, 39 (2011)). Briefly, 60-100 animals were used per conditions and scored every other day. All lifespan experiments were performed at 20° C. […] Animals were exposed to compounds during the full life from eggs until death. To ensure a permanent exposure to the compound, plates were changed twice a week. All the compounds used in this study were dissolved in a water stock solution.

[2] = test system: C. elegans; test: Worm fluorescence analysis (endogenous gut fluorescence/lipofuscin, sod-3::GFP); details: in vivo
Description: Fluorescence Analysis Quantification of GFP expression and endogenous gut fluorescence were carried out according to the protocol as described in Yamamoto et al. (Yamamoto et al., NCoR1 is a conserved physiological modulator of muscle mass and oxidative function. Cell 147, 827 (2011)). Briefly, GFP was monitored in day 1 or day 3 adults. Fluorimetric assays were performed using a Victor X4 multilabel plate reader (Perkin-Elmer Life Science). Eighty worms were picked at random (20 worms per well of a black-walled 96-well plate) and each well was read four times and averaged. Each experiment was repeated at least three times. Endogenous gut fluorescence was monitored at day 1, day 4 and day 8 by following the same protocol as described before.

[3] = test system: C. elegans; test: Worm respiration assay (Seahorse XF24); assay type: in vivo; details: day 3 adult worms
Description: Worm Respiration Assays Oxygen consumption was measured using the Seahorse XF24 equipment (Seahorse Bioscience Inc., North Billerica, Mass.) as described in Yamamoto et al. Typically, 200 animals per conditions were recovered from NGM plates with M9 medium, washed three times in 2 mLM9 to eliminate residual bacteria, and resuspended in 500 μL M9 medium. Worms were transferred in 24-well standard Seahorse plates (#100777-004) (50 worms per well) and oxygen consumption was measured 6 times. Respiration rates were normalized to the number of worms in each individual well. NAD measurement by HPLC For NAD+ quantification, approximately 1000 worms were collected in M9 buffer, washed five times to remove residual bacteria and flash-frozen in liquid nitrogen and stored at −80° C. until analysis. Extraction was started by adding 250 μl of 1.6M perchloric acid on frozen samples, followed by extensive homogenization in a Qiagen tissuelyser, and centrifugation at 20.000 g for 15 min. The supernatant was recovered and neutralized with a 3M potassium carbonate solution. After centrifugation, 100 μl of supernatant was filtered and used for NAD measurement using an HPLC system (Agilent) with a Supelco LC-18-T column (Sigma), as described in Yoshino et al. (Yoshino, K. F. Mills, M. J. Yoon, S. Imai, Nicotinamide Mononucleotide, a Key NAD(+) Intermediate, Treats the Pathophysiology of Diet- and Age-Induced Diabetes in Mice. Cell Metab 14, 528 (2011)).

[4] = test system: C. elegans; test: Quantitative RT-PCR in worms; assay type: in vivo
Description: mRNA and mtDNA Analysis. Total RNA was prepared using TRIzol (Invitrogen) according to the manufacturer's instructions. RNA was treated with DNase, and 2 μg of RNA was used for reverse transcription (RT). cDNA was purified on QIAquick PCR cleanup columns (Qiagen, Valencia, Calif., USA). 50× diluted cDNA was used for RT-quantitative PCR (RT-VCR) VCR) reactions (Bai et al., 2007). The RT-qPCR reactions were performed using the Light-Cycler system (Roche Applied Science) and a qPCR Supermix (Qiagen) with the primers for mice summarized in Table 1 and 4, and with the primers for worms summarized on Table 7. mtDNA quantification was performed as described (Lagouge et al., 2006) with the primers indicated in Table 2 and 5.

[5] = test system: C. elegans; test: Confocal microscopy of mitochondria in body wall muscle (pmyo-3::mito::GFP reporter); details: in vivo
Description: Confocal Microscopy and Image Processing Worms were immobilized with 6 mM solution of tetramisole hydrochloride (Sigma, Buchs, Switzerland) in M9 and mounted on 6% agarose pads on glass slides. Images of worms were acquired using Zeiss LSM 700 Upright confocal microscope (Carl Zeiss AG, Oberkochen, Germany) under non-saturating exposure conditions. All the snapshots were taken from the same part of C. elegans: muscles from the upper part of the worm, excluding the regions of oesophagus and vulva. For each condition multiple worms were observed and imaged. Image processing was performed with the Fiji software. One of the critical issues during the imaging process was the position of the worm, as it influences the level of background. For the uniformity of the represented images, contrast and brightness were adjusted in order, to eliminate the undesirable background signal. Neither of these manipulations was affecting the mitochondrial shape. Tracing of the mitochondrial network contour was done by the use of Gaussian blur filter followed by the application of Laplacian operator.

[6] = test system: C. elegans; test: MitoSox staining of worms (mitochondrial superoxide); assay type: in vivo; details: day 3
Description: Briefly, a population of 100 worms was recovered in 1 ml of M9 buffer, washed three times to remove residual bacteria, and resuspended in 200 μl of 1:200 MitoSox stock solution (initial stock solution was dissolved at 1 mM in DMSO). After 20 minutes of treatment, worms were washed five times in 1 ml of M9 buffer to eliminate the MitoSox reagent, and then transferred in a black-walled 96-well plate for reading. Fluorescence produced by the Mitosox reaction was measured as described before.

`O=C(c1cc(Cc2n[nH]c(=O)c3ccccc23)ccc1F)N1CCN(C(=O)C2CC2)CC1` [AZD2281] was tested, and the lifespan extension ([1]; 100 nM (FIG. 34B)) was 22.9%, the “mean lifespan ± SE” value ([1]; N2, 100 nM, listed as AZD) was 22.8 ± 0.9 days and 24.7 ± 0.669 days and 26.5 ± 0.77 days and 24.5 ± 0.94 days and 24.7 ± 0.55 days and the “mean lifespan ± SE” value ([1]; N2, 500 nM) was 22.2 ± 1.15 days. The “variation compared to control (%)” value ([1]; N2, 500 nM) was “+14.4%”, the “mean lifespan ± SE” value ([1]; N2, 1000 nM) was 21.2 ± 0.96 days and the “variation compared to control (%)” value ([1]; N2, 1000 nM) was “+9.2%”. For the same compound, the “lifespan in daf-16 mutant worms” value ([1]; daf-16(mu86) mutant worms) was “failed to increase lifespan; also recorded: fails to extend lifespan”, the “mean lifespan ± SE” value ([1]; daf-16(mu86), 100 nM) was 18.2 ± 0.76 days and the “variation compared to control (%)” value ([1]; daf-16(mu86), 100 nM) was −16.1%. For the same compound, the “mean lifespan ± SE” value ([1]; pme-1(ok988), 100 nM) was 26.1 ± 0.78 days, the “variation compared to control (%)” value ([1]; pme-1(ok988), 100 nM) was “+31.2%” and the “lifespan of the pme-1 mutant” value ([1]; pme-1 mutant worms) was “not further extended; also recorded: pme-1-dependent manner”. The “lifespan in sir-2.1(ok434) mutant / sir-2.1 dependence” value ([1]; sir-2.1(ok434) mutant worms) was “lost the AZD2281-induced longevity; also recorded: does not extend lifespan”, the “mean lifespan ± SE” value ([1]; sir-2.1(ok434), 100 nM) was 21.9 ± 0.528 days and the “variation compared to control (%)” value ([1]; sir-2.1(ok434), 100 nM) was “+6.7%”. For the same compound, the “accumulation of the aging pigment lipofuscin” value [2] was “reduced lipofuscin accumulation; also recorded: decreased the accumulation of the aging pigment lipofuscin”, the “sod-3::GFP” value [2] was “increase in sod-3::GFP” and the “oxygen consumption (respiration)” value [3] was “robustly increased respiration; also recorded: Oxygen consumption was increased”. For the same compound, the “expression of genes of mitochondrial oxidative metabolism (cts-1, cox-4)” value ([4]; day 3 of adulthood) was “increased expression of citrate synthase (cts-1) and cytochrome c oxidase subunit 4 (cox-4); also recorded: increased expression of genes involved in mitochondrial oxidative metabolism”, the daf-16 expression ([4]; in vivo) was “did not change expression of daf-16” and the sod-3 expression ([4]; in vivo) was “marked induction”. The “mitochondrial content in body wall muscle” value [5] was “more dense mitochondrial network” and the “ROS production (mitoSOX)” value [6] was “ROS production was decreased”.

Reference: patent US10709724B2, “Methods of treating mitochondrial dysfunction” (Ecole Polytechnique Federale de Lausanne (EPFL), priority 2011, dated 2020)
